Test results as given in BindingDB's records for doi:10.1016/j.bmc.2004.09.036 (University of Alabama At Birmingham, 2005).

How the values were obtained:
Assay in all cases: Protease Inhibition Assay
[1] = target: T1, Genome polyprotein [1066-1250,R1182K]/[1394-1440,K1405R,D1408E] (dengue virus type 2, UniProt P14340+P27914, D1408E/K1405R/R1182K); details: pH 8.5; 23 °C
T1 construct: 1066-1250; 1394-1440
Description: (§1) All proteases were assayed by monitoring the cleavage of peptide substrate with fluorescent reporter at room temperature with a microtiter plate spectrofluorometer. Three different concentrations of inhibitors were used for calculating Ki values. Kinetic data were measured with an excitation wavelength of 390nm and emission wavelength of 460nm. From the initial velocities of the reactions Ki values were calculated by nonlinear regression method using the program EZ-fit (Perella Scientific).

Serine protease 1 = target: T2, Serine protease 1 (Bos taurus, UniProt P00760); details: pH 7.6; 23 °C
T2 sequence (P00760 whole entry): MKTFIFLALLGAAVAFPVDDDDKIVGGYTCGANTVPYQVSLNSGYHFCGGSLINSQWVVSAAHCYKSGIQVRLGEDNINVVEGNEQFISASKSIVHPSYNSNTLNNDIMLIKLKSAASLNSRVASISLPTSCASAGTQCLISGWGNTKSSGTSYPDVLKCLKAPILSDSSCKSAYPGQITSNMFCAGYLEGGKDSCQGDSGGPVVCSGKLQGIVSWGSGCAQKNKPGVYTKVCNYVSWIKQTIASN
Description: as §1

[2] = target: T3, Genome polyprotein [1424-1463]/[1502-1685] (West Nile virus, UniProt P06935); details: pH 8.5; 23 °C
T3 construct: 1424-1463; 1502-1685
T3 sequence (P06935 whole entry) 1: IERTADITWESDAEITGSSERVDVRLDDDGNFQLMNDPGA
T3 sequence (P06935 whole entry) 2: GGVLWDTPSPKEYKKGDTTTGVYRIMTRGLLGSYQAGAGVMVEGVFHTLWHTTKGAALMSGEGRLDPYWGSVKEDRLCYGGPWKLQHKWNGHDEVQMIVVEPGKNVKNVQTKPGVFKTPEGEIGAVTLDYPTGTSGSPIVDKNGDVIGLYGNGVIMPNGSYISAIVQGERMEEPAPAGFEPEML
Description: as §1

T1 sequence (P14340 1394-1440, looked up, stated change not applied): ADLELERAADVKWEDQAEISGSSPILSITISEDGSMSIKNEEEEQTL
T1 sequence (P27914 1066-1250, looked up, stated change not applied): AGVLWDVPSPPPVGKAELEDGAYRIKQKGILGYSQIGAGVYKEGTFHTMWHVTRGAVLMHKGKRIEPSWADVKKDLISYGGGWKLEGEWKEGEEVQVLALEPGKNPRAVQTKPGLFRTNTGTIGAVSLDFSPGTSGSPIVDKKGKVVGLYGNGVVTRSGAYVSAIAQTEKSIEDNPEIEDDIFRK

NC(N)=NN=Cc1ccc(C=NN=C(N)N)cc1 [biguanidine, 1] showed a Ki [1] of 44 µM, a Ki (Serine protease 1) of 87 µM and a Ki [2] of 35 µM.

Work on N=C(N)NN=CC=NN=C(N)N [biguanidine, 2] yielded a Ki [1] of 423 µM, a Ki (Serine protease 1) of 155 µM and a Ki [2] of 337 µM.

With NC(N)=NNc1ccc(NNC(N)N)cc1 [biguanidine, 3] the Ki [1] was 1780 µM, the Ki (Serine protease 1) was 51 µM and the Ki [2] was 1090 µM.

In the case of Cc1ccc(C(=NN=C(N)N)P(O)O)cc1 [guanidine, 5], the Ki [1] is reported as 14 µM, the Ki (Serine protease 1) is reported as 3.2 µM and the Ki [2] is reported as 13 µM.

With NC(N)=NN=C1C(=O)Nc2ccccc21 [guanidine, 4] the Ki [1] was 23 µM, the Ki (Serine protease 1) was 4 µM and the Ki [2] was 16 µM.
